Entries after “also recorded” stand apart in the source; their conditions may differ.
Assays:
panelists = test: Sensory properties of steviol glycosides in acidified water (pH 3.0) at 500 mg/L, 20 panelists; type: in vivo, human; settings: acidified water pH 3.0, 20 panelists
Experimental: The sensory properties of Reb X were evaluated in acidified water (pH 3.0 by phosphoric acid) at 500 mg/L concentration by 20 panelists.

one experienced panelist = test: Taste evaluation of Reb X against Reb A and Reb D, controlled multi-sip and swallow taste method; type: in vivo, human
Experimental: The taste properties of a sample of Reb X were studied against Rebaudioside A (Reb A) and Rebaudioside D (Reb D) samples. Reb A was obtained from Cargill (lot #1040) and Reb-D was obtained from PureCircle (lot #Nov. 3, 2008).
The samples were prepared at 500 ppm for sweetness evaluation by adding moisture compensated mass into a 100 mL sample of carbon-treated water and citric buffer solutions.
(§1) Citric buffer was prepared by mixing 1.171 g/L citric acid, 0.275 g/L sodium citrate and 0.185 g/L sodium benzoate with carbon-treated water, with a final pH of 3.22. The mixtures were moderately stirred at room temperature. The Reb X sample was then evaluated against the two control Reb A and Reb D samples in water and citric buffer at room temperature (RT) and at 4° C. in an ice bath by one experienced panelist for any tasting quality determinations using the controlled, multi-sip and swallow taste method shown below:
1. Take first sip (˜1.8 mL) of control and swallow. Wait for 15-25 sec, then take second sip of control and wait for 15-25 sec.
2. Take first sip of the experimental sample, wait for 15-25 sec, then take second sip. Compare to second sip of control.
3. Repeat steps #1 and #2 for the third and fourth sips of the control and experimental samples to confirm the initial finding.

[1] = Solubility studies of Reb X in carbon-treated water and citrate buffer; type: physicochemical
Experimental: as §1
The samples used to evaluate the taste properties in Example 2 were also used for solubility studies.

one experienced taster = test: Isosweetness determination of Reb X in citric buffer against sucrose controls; type: in vivo, human
Experimental: (§2) The isosweetness levels of Reb X in a citric buffer system at room temperature and 4° C. were evaluated. A 600 ppm stock solution of Reb X was prepared by adding a mass of 0.15 g into a 250 mL sample of citric buffer (CB) solution. The mixture was moderately stirred at warmer temperature (up to ca. 52° C.) on a heated stirrer for about 15-20 minutes and then cooled. The citric buffer was prepared by adding 1.6 g citric acid, 0.6 g potassium citrate and 0.253 g sodium benzoate in 1 L of carbon-treated water. The pH of the mixture was 3.1. Seven diluted Reb X solutions at […], 25, 50, 100, 200, 300, 400 and 500 ppm were prepared by adding a 2.08, 4.17, 8.33, 16.67, 25.00, 33.33 and 41.67 mL Reb X stock solution, respectively, into each 50 mL solution of CB. The controls of 0.75%, 2%, 4%, 6%, 8%, 10% and 15% sucrose equivalence (SE) were also prepared by adding sugar (w/v) into the CB. The mixtures were moderately stirred and then ready for the isosweetness determination test. The Reb X samples were then evaluated against the control sugar samples in citric buffer at room temperature (RT) and 4° C. (in an ice bath) by one experienced taster for an isosweetness determination using the controlled, multi-sip and swallow taste method.

[2] = Taste comparison of Reb X and Reb A in beverage formulations; type: in vivo
panel of trained tasters = test: Reb X sweetness vs. concentration, matched to sucrose reference solutions; type: in vivo, human; settings: Sweetness Equivalent (SE) 2.5%; Reb X 98% purity; water, room temperature
Experimental: 2.5%, 5.0%, 7.5%, and 10.0% sucrose solutions were prepared in neutral (7.0 pH) and acidified water (3.2 pH) as reference samples. Solutions containing Reb X (98% purity) were prepared to match the sweetness of each sucrose reference in neutral and acidified water. Samples were tasted and verified by a panel of trained tasters in water at room temperature.

[3] = tested on: semi-trained panel members; test: Sensory comparison of Reb X and Reb A, iso-sweet samples of 8% sucrose equivalent sweetness; type: in vivo, human
Experimental: To compare the sensory attributes between Reb X and Reb A, iso-sweet samples having 8% sucrose equivalent sweetness were made with filtered water as shown in Table 8. An 8% sugar solution in water at room temperature was used as a control. An 8% sugar solution in the acidified solution was used as the control. The samples prepared with filtered water were evaluated by 34 semi-trained panel members at room temperature. The samples prepared with acidified water were evaluated by 23 semi-trained panel members at room temperature. Samples were given to the panel members sequentially and coded with triple digit numbers. The order of sample presentation was randomized to avoid order of presentation bias. Water and unsalted crackers were provided in order to cleanse the palate. The panel members were asked to rate different attributes including sweetness onset, total sweetness, rounded sweetness, bitterness, acidity, leafy note, licorice, astringency, mouthfeel, mouth coating, sweet lingering, and bitter lingering. Samples were rated on a scale of zero (0) to ten (10), with zero indicating immediate onset, no intensity, watery/low viscosity, or very sharp peak, and ten indicating very delayed onset, high intensity, thick/high viscosity, or very round peak. One-way single factor ANOVA was used to analyze sensory results, where α=0.05.

[4] = Solubility of the Reb X stock solution in citric buffer; type: physicochemical; settings: Reb X 0.06% (w/v) in citric buffer, up to 52° C., ca. 15-20 minutes
Experimental: as §2

C=C1C[C@@]23CCC4[C@](C)(C(=O)OC5OC(CO)C(O)C(OC6OC(CO)C(O)C(O)C6O)C5OC5OC(CO)C(O)C(O)C5O)CCC[C@@]4(C)[C@@H]2CCC1(OC1OC(CO)C(O)C(OC2OC(CO)C(O)C(O)C2O)C1OC1OC(CO)C(O)C(O)C1O)C3 (stereo partly drawn) [Reb X, 13-[(2-O-β-D-glucopyranosyl-3-O-β-D-glucopyranosyl-β-D-glucopyranosyl)oxy]ent kaur-16-en-19-oic acid-[(2-O-β-D-glucopyranosyl-3-O-β-D-glucopyranosyl-β-D-glucopyranosyl)ester]]
Quality of sweet taste (comment) (panelists; 500 ppm (sucrose 10,000 ppm)): Clean | Taste profile compared with known steviol glycosides (panelists; 500 ppm): superior taste profile to already known steviol glycosides | Taste Properties (one experienced panelist; 500 ppm in citric buffer (pH 3.22), room temperature): temporal profile and quality similar to sucrose; also recorded: Clean sweet taste. Broad and full sweetness profile; also recorded: Moderate sweetness linger aftertaste similar to aspartame | Astringency, sweetness depth and bitterness notes (one experienced panelist; 500 ppm, citrate buffer system, compared with Reb A): did not have the astringency or sweetness intense (depth) and bitterness notes compared to that of the Reb A | Taste quality compared with Reb A and Reb D (one experienced panelist; 500 ppm, citric buffer): much better than Reb A or Reb D | Tasting quality, temporal profile and sweetness linger (one experienced panelist; 500 ppm, citric buffer, compared with Reb A): did not display a pure sugar-like tasting quality but rather contained a fatty-like or broader sweet temporal profile and less sweetness linger than that of Reb A | Solubility, initial solubility test ([1]; 500 ppm in citrate buffer, compared with Reb D and Reb A): similar, limited but significantly greater solubility than that of Reb D and significantly less solubility than Reb A | Estimated time to solubilize ([1]; Reb X 0.01% in carbon-treated water): 15 min | Estimated time to solubilize ([1]; Reb X 0.01% in citrate buffer): 25 min | Estimated time to solubilize ([1]; Reb X 0.02% in carbon-treated water): 25 min | Estimated time to solubilize ([1]; Reb X 0.02% in citrate buffer): 25 min | Estimated time to solubilize ([1]; Reb X 0.04% in carbon-treated water): 33 min | Estimated time to solubilize ([1]; Reb X 0.04% in citrate buffer): 35 min | Estimated time to solubilize ([1]; Reb X 0.05% in carbon-treated water): 39 min | Estimated time to solubilize ([1]; Reb X 0.05% in citrate buffer): 42 min | Estimated time to solubilize ([1]; Reb X 0.075% in carbon-treated water): 55 min | Estimated time to solubilize ([1]; Reb X 0.075% in citrate buffer): 55 min | Estimated time to solubilize ([1]; Reb X 0.10% in carbon-treated water): 106 min | Estimated time to solubilize ([1]; Reb X 0.10% in citrate buffer): 106 min | Estimated time to solubilize ([1]; Reb X 0.15% in carbon-treated water): Insoluble after 20 hours | Estimated time to solubilize ([1]; Reb X 0.15% in citrate buffer): Insoluble after 20 hours | Off-flavors (one experienced taster; Reb X 12.5-600 ppm in citric buffer at 4° C.): No off-flavors at any Reb X concentrations in CB at 4 °C were detected, except at least ca. 300 ppm which noticeably had a longer sweetness lingering | Sweetness intensity difference between RT and 4° C. (one experienced taster; Reb X concentration range, direct comparison with control sucrose at similar temperatures): no significant sweetness intensity difference between RT and 4 °C | Sweetness tasting quality (one experienced taster; all Reb X concentrations (12.5-600 ppm), citric buffer): pleasant sweetness tasting quality with a slight delay of sweetness onset and no bitterness | Taste properties compared with Reb A drink ([2]; flavored zero calorie black tea drink, 250 ppm): much cleaner in finish with less sweetness linger and a more rounded overall sweetness profile | Taste properties compared with Reb A drink ([2]; zero calorie enhanced water drink, 200 ppm): cleaner in finish and had reduced sweetness linger and a more rounded overall sweetness taste quality | Reb X level closest in sweetness level to a 11.5 Brix high fructose corn syrup sweetened orange flavored sparkling beverage ([2]; zero calorie orange-flavored sparkling beverage base): 500 ppm | Taste compared with Reb A-containing formulations ([2]; zero calorie orange-flavored sparkling beverage, Reb X 400 to 750 ppm in 50 ppm increments): tasted significantly better than comparable Reb A-containing formulations | Reb X Concentration matching the sucrose reference (panel of trained tasters): 48 ppm | Sweetness onset, non-sweet taste and bitterness lingering compared with Reb A ([3]; acidified water (250 ppm citric acid, pH 3.2), 23 panel members, FIG. 12): faster sweetness onset, reduced non-sweet taste (bitterness, sour, astringency) and bitterness lingering | Sweetness compared with Reb A ([3]; acidified water (250 ppm citric acid, pH 3.2), Reb X 0.0423% vs Reb A 0.0510%, 23 panel members, FIG. 12): perception of higher sweetness of Reb X over Reb A is significant | Bitterness, astringency and bitter lingering compared with Reb A ([3]; filtered water, Reb X 0.0423% vs Reb A 0.0510%, 34 panel members, scale 0-10, FIG. 11): reduced perception of bitterness, astringency and bitter lingering compared to Reb A | Solubility and appearance [4]: very soluble and clear (colorless)
